Source: patent US20040241244A1, “Neuronal growth enhancement by prostaglandin compositions and methods” (NexMed (Holdings) Inc., priority 2003, published 2004)
Values joined by “and” are separate entries in the source; they are usually repeats but may differ in a detail not shown here. Identical values can stand only once. Like-named read-outs stand apart in the source and are kept apart here.

Experiments:
[1] = system: cultured mouse dorsal root ganglion neurons; settings: 20 micromolar, at 2 hours; cited from earlier work
[2] = system: mouse neuroblastoma cells; settings: cited from earlier work
EP2 receptor = EP2 receptor (Mus musculus, UniProt Q62053); settings: read-out: affinity for the EP2 receptor; cited from earlier work
[3] = system: dorsocaudal regions of rat major pelvic ganglia (DCR-MPG); assay: Neurite outgrowth in primary cultures of dorsocaudal regions of rat major pelvic ganglia; assay type: cell-based, Sprague-Dawley rats
Method: The dorsocaudal regions of 24 major pelvic ganglia (DCR-MPG) were dissected from Sprague-Dawley rats. Each sample was placed on a reduced-growth factor Matrigel coated glasscover slide in a culture dish filled with serum-free medium. […] The ganglia cultures were incubated at 37° C. in a humidified atmosphere with 5% CO2. Digital photographs were taken of neurite growth after 96 hours.
Growth Factor Reduced Matrigel (Passaniti, A., et al., Lab. Invest. 1992 67:518-528) was purchased from Becton Dickinson (Mountain View, Calif.). Cell culture grade PGE1 was purchased from Sigma Chemical. (St. Louis, Mo.). RPIM-1640 and other cell culture reagents were purchased from GIBCO Invitrogen Corp. (Grand Island, N.Y.).
Male Sprague-Dawley rats, two-months old, were used in this study. All animal care, treatments, and procedures were approved by the institutional Committee on Animal Research. The rats were sacrificed by intraperitoneal injection of sodium pentobarbital (50 mg/kg) followed by bilateral thoracotomy and the removal of the dorsocaudal region of the major pelvic ganglia (DCR-MPG).
Each rat supplied a pair of DCR-MPG; one was used as control and the contralateral ganglion was treated with PGE1. The DCR-MPG isolated from Sprague-Dawley rats were cultured attached to Matrigel-coated glass coverslips. The coverslips were used as the supporting platform to facilitate samples processing for histological staining and examination. Coverslips were coated as follows. Growth Factor Reduced Matrigel (Becton Dickinson, Mountain View, Calif.) was diluted 3-fold in serum-free RPMI-1640 in a 35-mm culture dish on ice. The diluted Matrigel was then spread onto cold sterilized glass coverslips using a sterilized glass slide as spreader. The coated coverslips were placed in 35-mm culture dishes and incubated at 37° C. for 1 hr to allow the Matrigel to solidify. Each freshly dissected DCR-MPG was rinsed in phosphate-buffered saline (PBS), cut into equal thirds, placed on top of Matrigel coated coverslips and covered by 50 μl cold Growth Factor Reduced Matrigel which had been kept in liquid form. After a 5-min incubation at 37° C. to allow the Matrigel to polymerize, 3 ml of serum-free RPMI 1640 medium supplemented with 1×penicillin-streptomycin-fungizone (Cell Culture Facility, University of California, San Francisco) was added. […] The ganglia cultures were maintained at 37° C. in a humidified atmosphere with 5% CO2.
After 2 to 3 days of incubation, the ganglia and outgrowing neurites were stained for nicotinamide adenine dinucleotide phosphate (NADPH) diaphorase as an indication of nitric oxide synthase (NOS) expression. The culture medium was removed from each culture and replaced with a fixative solution of 2% formaldehyde, 0.002% picric acid in 0.1 M phosphate buffer, pH 8.0. After 20 min of fixation, the tissue was rinsed three times, 10 min each, with phosphate buffer, pH 8.0. The tissue was then incubated with 0.1 mM NADPH, 0.2 mM nitroblue tetrazolium, 0.2% Triton X-100 in buffer for approximately 30 min at room temperature with constant microscopic monitoring for color development. When a deep blue color was detected for NADPH-diaphorase positive nerves, the reaction was terminated by washing the tissues with buffer three times, 10 min each. The coverslips containing the ganglia were then mounted onto glass slides using buffered glycerin as mounting medium.
Neurites were photographed using a professional DCS-420 digital camera (Eastman Kodak, Rochester, N.Y.) connected to an Olympus microscope and an Apple Macintosh PowerMac computer. All samples were photographed and the images were stored for later analysis. The digital images were analyzed using Chemilmager 4000 software (Alpha Innotech Corporation, San Leandro, Calif.) to determine the maximum length of the outgrowing neurites fibers.
Statistical analysis was performed using computer software from Primer of Biostatistics, 3rd ed. (Glantz SA, McGraw-Hill, Inc. New York, 1992). […]

[4] = system: patients after nerve sparing RRP; settings: three months of intracavernous injections three times a week; patients completing treatment; cited from earlier work
[5] = system: mouse neuroblastoma cells; assay: Neurite extension in neuroblastoma cells in culture (Prasad, 1972); assay type: cell-based; settings: converted from micrograms/ml
Description: “Neurite” is a broad term used to describe both axons and dendrites produced by a nerve cell; most commonly used to cover all cellular processes produced by neurons in culture (Kendrew, J., editor, The Encyclopedia of Molecular Biology, Blackwell Science Ltd., Oxford, 1994, page 709).

Chain of EP2 receptor (Q62053 whole entry): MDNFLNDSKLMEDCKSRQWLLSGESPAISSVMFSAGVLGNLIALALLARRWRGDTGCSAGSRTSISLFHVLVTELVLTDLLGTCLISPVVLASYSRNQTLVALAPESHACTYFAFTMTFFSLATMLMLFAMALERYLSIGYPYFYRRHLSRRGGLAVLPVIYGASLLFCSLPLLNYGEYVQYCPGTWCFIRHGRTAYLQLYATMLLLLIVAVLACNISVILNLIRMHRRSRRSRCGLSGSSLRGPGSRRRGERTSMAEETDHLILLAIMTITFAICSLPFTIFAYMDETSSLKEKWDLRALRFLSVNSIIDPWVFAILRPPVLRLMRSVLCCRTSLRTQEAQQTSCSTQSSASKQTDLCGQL

| Compound | neurite extension [1] | optimum concentration for neurite extension [2] | Kd (EP2 receptor) | Neurite Growth (Length of longest neurite), Mean ([3]; 1 μM PGE1, 96 hours culture) | Neurite Growth (Length of longest neurite), Mean ([3]; 10 μM PGE1, 96 hours culture) | Neurite Growth (Length of longest neurite), Mean ([3]; 20 μM PGE1, 96 hours culture) | fiber length induced ([3]; 30 μM PGE1) | peak neurite growth (mean ± standard deviation) ([3]; 30 μM PGE1) | Neurite Growth (Length of longest neurite), Mean ([3]; 30 μM PGE1, 96 hours culture) | Neurite Growth (Length of longest neurite), Mean ([3]; 60 μM PGE1, 96 hours culture) | maximum neurite extension at high doses ([3]; 60 μM, 100 μM) | Neurite Growth (Length of longest neurite), Mean ([3]; 100 μM PGE1, 96 hours culture) | effect on neurite outgrowth of NADPH positive cells ([3]; primary cultures, 1-100 μM) | PGE1 concentration at which the maximum effect on neurite outgrowth was observed ([3]; tested at 1, 10, 20, 30, 60 or 100 μM) | patients reporting recovery of spontaneous erections sufficient for intercourse [4] | optimum time of exposure [2] | optimum concentration for neurite extension [5] |
| --- | --- | --- | --- | --- | --- | --- | --- | --- | --- | --- | --- | --- | --- | --- | --- | --- | --- |
| CCCCC[C@H](O)/C=C/[C@H]1[C@H](O)CC(=O)[C@@H]1C/C=C\CCCC(=O)O [PGE2, Prostaglandin E2] | significantly different from control | same optimum concentration | ~10 nM | – | – | – | – | – | – | – | – | – | – | – | – | – | – |
| Prostaglandin E1 [PGE1] | – | about 10 micrograms/ml | – | 168.00 μm | 229.33±10.7 μm and 229.33 μm | 244.00 μm | 250 ± 38.1 µm | 250±63 micrometers | 250.29 μm | 138.00 μm | smaller maximum neurite extension | 112.00 μm | enhance neurite outgrowth | 30 µM | 8 of the 12 | 3 to 5 days | about 30 micromolar |
